In patent US5962409A, “Somatostatin-analogous cyclic peptides with inhibitory activity on growth hormone” (priority 1995, dated 1999):

How the values were obtained:
[1] = tested on: 57 kDa complex (somatostatin receptor sub-type 2); experiment: Displacement of radioiodinated 11-Tyr somatostatin-14 from somatostatin receptors, 57 kDa complex (gel electrophoresis/autoradiography); format: binding, rat and human; details: 10^-6 M; auto-radiographies in electrophoresis
Method: (§1) The study of the binding of the peptides on somatostatin receptors has been carried out according to the displacement method which consists in replacing from the receptors the radioligand (11-Tyr radioiodinated somatostatin 14-) before electrophoretic analysis on a denaturant polyacrylaminde gel (Prevost et al. European J. Cancer, 11, 1589-1592,1993).
(§2) The biological activity was tested on rat and human cell lines, namely a GH 3 rat cell line established starting from a pituitary tumor with two 70 and 57 kDa receptors; MCF7 human cell line established starting from a pleural effusion of a breast carcinoma with two main 57 and 42 kDa receptors and human cell line established starting from a small cell carcinoma of the lung with a 57 kDa receptor.
(§3) The tested peptides were suspended in 0.1% acetic acid at the final concentration of 10 mM and stored at 4° C.
(§4) Tests were carried out at a 10^-6 M concentration.

[2] = tested on: 70 kDa complex (1 or 4 sub-type somatostatin receptors), GH 3 rat cell line; experiment: Displacement of radioiodinated 11-Tyr somatostatin-14 from somatostatin receptors, 70 kDa complex (gel electrophoresis/autoradiography); format: binding; details: 10^-6 M; auto-radiographies in electrophoresis
Method: as §1, §2, §3, §4

Row | Compound | displacement of the 57 kDa radioligand-receptor complex [1] | suppression of the 70 kDa radioligand-receptor complex [2]
1 | Antarelix | not | 
2 | C[C@H](N)C(=O)NCC(=O)N[C@H]1CSSC[C@@H](C(=O)O)NC(=O)[C@H](CO)NC(=O)[C@H]([C@@H](C)O)NC(=O)[C@H](Cc2ccccc2)NC(=O)[C@H]([C@@H](C)O)NC(=O)[C@H](CCCCN)NC(=O)[C@H](Cc2c[nH]c3ccccc23)NC(=O)[C@H](Cc2ccccc2)NC(=O)[C@H](Cc2ccccc2)NC(=O)[C@H](CC(N)=O)NC(=O)[C@H](CCCCN)NC1=O [somatostatin-14] |  | suppressed
